Source: US20250034216A1, “STEREOSELECTIVE COVALENT LIGANDS FOR ONCOGENIC AND IMMUNOLOGICAL PROTEINS” (The Scripps Research Institute, priority 2021, published 2025)

Legend:
RAB39B_C23 = biological target: T1, RAB39B_C23 (Homo sapiens, UniProt Q96DA2); experiment: IA-DTB cysteine engagement; format: binding; conditions: 22Rv1 cells, 20 μM probe, 1 h, relative to DMSO
T1 construct: endogenous in cells; host or cells: 22Rv1
T1 sequence (Q96DA2 1-213): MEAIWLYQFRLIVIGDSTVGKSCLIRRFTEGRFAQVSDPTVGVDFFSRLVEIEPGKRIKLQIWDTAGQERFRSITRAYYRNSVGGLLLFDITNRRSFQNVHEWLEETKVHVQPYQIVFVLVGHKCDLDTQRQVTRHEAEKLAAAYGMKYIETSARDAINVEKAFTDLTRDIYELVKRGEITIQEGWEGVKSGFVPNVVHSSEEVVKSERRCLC
Outline: (§1)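 Probe-exposed cells were lysed, IA-DTB-labeled, trypsinized and streptavidin-enriched. Multiplexed TMT quantitation gave engagement ratios versus DMSO, with non-tryptic peptides excluded and intensities normalized to median summed signal.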

VWA5B2_C1040 = biological target: T2, VWA5B2_C1040 (Homo sapiens, UniProt Q8N398); experiment: IA-DTB cysteine engagement; format: binding; conditions: 22Rv1 cells, 20 μM probe, 1 h, relative to DMSO
T2 construct: endogenous in cells; host or cells: 22Rv1
T2 sequence (Q8N398 1-1242): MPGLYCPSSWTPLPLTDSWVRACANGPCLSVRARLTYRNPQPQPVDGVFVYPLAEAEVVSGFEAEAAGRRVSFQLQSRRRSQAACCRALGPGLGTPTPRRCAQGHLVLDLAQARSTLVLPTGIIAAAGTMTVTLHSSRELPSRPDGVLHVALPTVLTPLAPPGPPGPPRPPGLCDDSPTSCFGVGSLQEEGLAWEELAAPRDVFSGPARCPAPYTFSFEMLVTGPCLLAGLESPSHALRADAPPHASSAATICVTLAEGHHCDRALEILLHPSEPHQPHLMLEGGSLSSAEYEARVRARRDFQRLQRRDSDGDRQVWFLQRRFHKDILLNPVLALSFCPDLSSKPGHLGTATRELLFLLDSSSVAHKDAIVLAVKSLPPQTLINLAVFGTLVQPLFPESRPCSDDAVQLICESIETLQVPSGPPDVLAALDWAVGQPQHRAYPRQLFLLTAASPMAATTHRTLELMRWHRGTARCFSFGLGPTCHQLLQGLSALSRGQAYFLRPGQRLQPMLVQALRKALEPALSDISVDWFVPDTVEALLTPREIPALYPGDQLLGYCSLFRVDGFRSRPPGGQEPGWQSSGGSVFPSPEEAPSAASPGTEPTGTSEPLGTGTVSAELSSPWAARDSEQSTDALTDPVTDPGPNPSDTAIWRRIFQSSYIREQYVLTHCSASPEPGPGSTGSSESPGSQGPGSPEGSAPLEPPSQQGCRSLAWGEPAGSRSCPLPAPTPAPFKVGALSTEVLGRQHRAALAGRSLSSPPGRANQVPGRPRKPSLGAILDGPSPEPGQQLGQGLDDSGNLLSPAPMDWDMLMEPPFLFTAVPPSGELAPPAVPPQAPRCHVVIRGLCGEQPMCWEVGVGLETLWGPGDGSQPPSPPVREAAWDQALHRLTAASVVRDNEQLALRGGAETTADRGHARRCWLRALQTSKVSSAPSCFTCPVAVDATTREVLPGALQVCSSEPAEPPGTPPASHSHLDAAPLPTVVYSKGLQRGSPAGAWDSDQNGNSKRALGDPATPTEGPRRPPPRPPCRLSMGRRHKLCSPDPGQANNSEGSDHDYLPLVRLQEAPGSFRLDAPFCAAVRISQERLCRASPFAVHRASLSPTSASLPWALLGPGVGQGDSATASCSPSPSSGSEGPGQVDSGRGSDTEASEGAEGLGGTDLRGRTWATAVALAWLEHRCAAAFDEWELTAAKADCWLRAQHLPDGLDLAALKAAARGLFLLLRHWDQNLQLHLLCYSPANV
Outline: as §1

% engagement RAB39B_C23 (RAB39B_C23) | % engagement VWA5B2_C1040 (VWA5B2_C1040) | Compound
24.5% | 76.5% | C=CC(=O)N1C[C@@H](c2ccc(Br)cc2)[C@H]1C(=O)Nc1cccc2cccnc12 [MY-1A, (2S,3R)-1-acryloyl-3-(4-bromophenyl)-N-(quinolin-8-yl)azetidine-2-carboxamide]
18.5% | 76.25% | C=CC(=O)N1C[C@H](c2ccc(Br)cc2)[C@@H]1C(=O)Nc1cccc2cccnc12 [MY-1B, (2R,3S)-1-acryloyl-3-(4-bromophenyl)-N-(quinolin-8-yl)azetidine-2-carboxamide]
67% | 74.25% | C=CC(=O)N1C[C@H](c2ccc(Br)cc2)[C@H]1C(=O)Nc1cccc2cccnc12 [MY-3B, (2S,3S)-1-acryloyl-3-(4-bromophenyl)-N-(quinolin-8-yl)azetidine-2-carboxamide]
−53% | 51.5% | C=CC(=O)N1C[C@H](c2ccc(Br)cc2)[C@H]1C(=O)Nc1cccc2cccnc12 [MY-3A, (2S,3S)-1-acryloyl-3-(4-bromophenyl)-N-(quinolin-8-yl)azetidine-2-carboxamide]
